A word on the IC50: it is the concentration at which inhibition is half-maximal.

Assay [1] addresses T1, tubulin (microtubular protein purified from pig brains) (Sus scrofa, UniProt P02550+P02554).
T1 construct: microtubular protein was purified from pig brains via cydic assembling/disassembling; from tissue; host or cells: pig brain
The assay can be described thus: Inhibition of tubulin polymerization (turbidimetry at 340 nm). Format: biochemical. Particulars: pig brain microtubular protein 1 mg/ml, 0.25 mmol GTP, 37° C. The procedure: The in-vitro testing of the tubulin polymerization influence was performed as follows:
According to Shelanski et al. (Shelanski et al. Proc. Natl. Acad. Sci. USA 1973, 70, 765-8), microtubular protein was purified from pig brains via cydic assembling/disassembling. The buffer system used had the following composition: 20 mmol of PIPES (1,4-piperazine-diethane-sulfonic acid, pKa 6.8), 80 mmol of NaCl, 0.5 mmol of MgCl2, 1 mmol of EGTA [ethylene glycol-bis-(2-aminoethylene)-tetraacetic acid].
For active ingredient testing, protein concentrations of 1 mg/ml (about 10^−5 mmol of tubulin) were used. The determination of protein was carried out according to the Lowry Method (Lowry et al. J. Biol. Chem. 1951, 193, 265-75) with bovine serum albumin as a standard. The assembling of microtubuli was carried out in the presence of 0.25 mmol of GTP and heating the samples to 37° C.
The microtubulus formation was examined by means of turbidimetry at a wavelength of 340 nm.
Testing of the active ingredients was carried out by their addition at the beginning of the assembling or in the state of equilibrium. […] To monitor action and to evaluate the measured turbidity values, a transmission electron microscopic study (CEM 902 A, Zeiss/Oberkochen) of the assemblates was always performed after negative staining with 1% aqueous uranyl acetate.

The subject of assay [2] is DU145 human prostate tumor cells. The assay is described as follows: Inhibition of cell proliferation, crystal violet staining. Particulars: DU145, 4 days incubation. Format: cell-based. As for the experimental part:
(§1) Cell cultures of the following cell lines were prepared in 96-well microtiter plates: • 1. MaTu/ADR multidrug-resistant human breast tumor cells (Epo GmbH Berlin), 5000 cells/well. • 2. HCT116 human colon tumor cells (ATCC CCL-247), 3000 cells/well. • 3. NCl-H460 human non-small-cell lung cancer cells (ATCC HTB-177), 3000 cells/well. • 4. DU145 human prostate tumor cells (ATCC HTB-81), 5000 cells/well. • 5. HMVEC human primary dermal microvascular endothelial cells, 7500 cells/well.
(§2) After 24 hours of incubation in a cell culture incubator at 37° C., the cells of a microtiter plate were stained with crystal violet (reference plate), while the cells in the test plates were incubated for 4 days with the test substances in the concentrations […], as well as with the DMSO solvent by itself (solvent control). The cell proliferation was determined by staining cells with crystal violet. The extinction of the crystal violet was determined by photometry at 595 nm. The percentage of the change in the cell number in the test plates was determined after the extinction values were normalized to the reference plate (0%) and to the solvent control (100%). The semi-maximal inhibition of the cell growth (IC50) was determined as the substance concentration, in which 50% of the cell number of the solvent controls were present.

In assay [3] the test system is HCT116 human colon tumor cells. Described as above. Format: cell-based. The conditions noted are these: HCT116, 4 days incubation. As for the experimental part:
as §1, §2

Assay [4] relates to HMVEC human primary dermal microvascular endothelial cells. The assay is described as above. The conditions noted are these: 4 days incubation. Format: cell-based. The procedure:
as §1, §2

Assay [5] has as its system MaTu/ADR multidrug-resistant human breast tumor cells. Described as above. Format: cell-based. Particulars: 4 days incubation. As for the experimental part:
as §1, §2

The test system of assay [6] is NCl-H460 human non-small-cell lung cancer cells. The description is as above. Format: cell-based. Particulars: NCl-H460, 4 days incubation. The procedure:
as §1, §2

T1 sequence (P02550 whole entry): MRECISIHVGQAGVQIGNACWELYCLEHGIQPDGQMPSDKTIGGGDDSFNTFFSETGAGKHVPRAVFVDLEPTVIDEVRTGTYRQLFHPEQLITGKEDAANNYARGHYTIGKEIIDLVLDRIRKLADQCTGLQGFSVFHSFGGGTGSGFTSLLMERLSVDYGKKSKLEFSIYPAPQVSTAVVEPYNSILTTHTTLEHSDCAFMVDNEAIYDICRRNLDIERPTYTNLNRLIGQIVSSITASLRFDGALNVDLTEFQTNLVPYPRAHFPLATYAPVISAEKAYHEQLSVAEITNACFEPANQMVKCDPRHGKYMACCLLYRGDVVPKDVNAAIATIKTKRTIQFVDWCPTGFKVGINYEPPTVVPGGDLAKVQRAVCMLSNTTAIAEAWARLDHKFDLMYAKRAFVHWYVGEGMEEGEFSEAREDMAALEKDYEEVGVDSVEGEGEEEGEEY
T1 sequence (P02554 whole entry): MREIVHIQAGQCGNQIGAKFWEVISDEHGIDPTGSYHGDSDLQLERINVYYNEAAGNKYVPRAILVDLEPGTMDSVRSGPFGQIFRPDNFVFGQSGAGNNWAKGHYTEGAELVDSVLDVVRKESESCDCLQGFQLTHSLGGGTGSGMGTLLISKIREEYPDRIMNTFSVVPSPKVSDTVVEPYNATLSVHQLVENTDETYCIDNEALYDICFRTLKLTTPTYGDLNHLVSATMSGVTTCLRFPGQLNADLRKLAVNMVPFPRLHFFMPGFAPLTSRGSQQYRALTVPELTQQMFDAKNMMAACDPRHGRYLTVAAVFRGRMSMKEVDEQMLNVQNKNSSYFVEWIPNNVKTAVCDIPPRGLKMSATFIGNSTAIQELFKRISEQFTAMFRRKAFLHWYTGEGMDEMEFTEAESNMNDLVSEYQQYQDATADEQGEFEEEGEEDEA

Regarding `COc1cc2c(cc1OS(N)(=O)=O)CC[C@@H]1[C@@H]2CC[C@]2(C)CCCC[C@@H]12` [(2), 2-Methoxy-17a-homoestra-1,3,5(10)-trien-3-yl Sulfamate], the half-maximal inhibitory concentration (IC50) was 950 nM in assay [1]; 600 nM in assay [2] (Homo sapiens, DU-145, 96 h); 600 nM in assay [3] (Homo sapiens, HCT-116, 96 h); 500 nM in assay [4] (Homo sapiens, 96 h); 200 nM in assay [5] (Homo sapiens, 96 h); 600 nM in assay [6] (Homo sapiens, 96 h).
With `COc1cc2c(cc1OS(N)(=O)=O)CC[C@@H]1[C@@H]2CC[C@]2(C)[C@@H](OS(N)(=O)=O)CCC[C@@H]12` [(4), 2-Methoxy-17a-homoestra-1,3,5(10)-triene-3,17aβ-diyl Bissulfamate], the IC50 in assay [2] came out at 2800 nM; in assay [3] it was 1800 nM; in assay [4], 600 nM; in assay [5] it was 800 nM; in assay [6], 1800 nM.
For the molecule `COc1cc2c(cc1O)CC[C@@H]1[C@@H]2CC[C@]2(C)[C@@H](O)CC[C@@H]12` [2-Methoxyestradiol, reference compound], the IC50 in assay [1] is 2700 nM; in assay [2], 1900 nM; in assay [3] it was 1100 nM; in assay [4] it was 2200 nM; in assay [5], 200 nM; in assay [6], 1800 nM.
For the molecule `CC(=O)O[C@H]1C(=O)[C@@]2(C)[C@H]([C@H](OC(=O)c3ccccc3)[C@]3(O)C[C@H](OC(=O)[C@H](O)[C@@H](NC(=O)c4ccccc4)c4ccccc4)C(C)=C1C3(C)C)[C@]1(OC(C)=O)CO[C@@H]1C[C@@H]2O` [Taxol, reference compound], the IC50 in assay [2] (Homo sapiens, DU-145, 96 h) came to 4 nM; in assay [3] (Homo sapiens, HCT-116, 96 h), 4 nM; in assay [4] (Homo sapiens, 96 h), 4 nM; in assay [5] (Homo sapiens, 96 h) it was 400 nM; in assay [6] (Homo sapiens, 96 h), 4 nM.
Regarding `COc1cc2c(cc1OS(N)(=O)=O)CC[C@@H]1[C@@H]2CC[C@]2(C)C(=O)CCC[C@@H]12` [(1), 2-Methoxy-17a-oxo-17a-homoestra-1,3,5(10)-trien-3-yl Sulfamate], the IC50 in assay [2] was 500 nM; in assay [3] it was 180 nM; in assay [4], 220 nM; in assay [5], less than 100 nM; in assay [6], 180 nM.

These data come from patent US7244762B2, “Antitumoral d-homoestra-1,3,5 (10)-trien-3-yl 2-substituted sulfamates” (Sterix Limited, priority 2003, dated 2007).
